Earlier results on two compounds are cited in patent US9446050B2, “Method for treatment of mesothelioma” (THE BRIGHAM AND WOMEN'S HOSPITAL, INC., priority 2011, dated 2016).

Data set [1] concerns mesothelioma. The following applies: single agent.
Data set [2] has as its system mesothelioma. The note with it: large-dose single treatment in combination with leucovin.

With `Nc1nc2[nH]cc(CCc3ccc(C(=O)N[C@@H](CCC(=O)O)C(=O)O)cc3)c2c(=O)[nH]1` [pemetrexed], in the data set on mesothelioma [1], the median overall survival is 10.7 months and the response rate is reported as 14.1%.
With `CN(Cc1cnc2nc(N)nc(N)c2n1)c1ccc(C(=O)N[C@@H](CCC(=O)O)C(=O)O)cc1` [methotrexate], the efficacy rate with mesothelioma [2] is listed as 37%.
